# According to article PMC9061853, “Luminescent bis(benzo[d]thiazolyl)quinoxaline: facile synthesis, nucleic acid and protein BSA interaction, live-cell imaging, biopharmaceutical research and cancer theranostic application” (RSC Advances, 2019):
# Key:
# [1] = MTT cytotoxicity assay, Caco-2; format: cell-based, human; conditions: human, Caco-2, ratio of IC50 for HEK-293 to IC50 for Caco-2; read-out: SF (selectivity factor) Caco-2
# Description: (§1) In vitro cytotoxic activities (MTT assay):
# (§2) The basic detection of cytotoxicity of anticancer compounds in vitro is MTT assay. The MTT proliferation assay is based on the reduction of the yellow MTT tetrazolium salt (3-[4,5-dimethylthiazol-2-yl]-2,5diphenyltetrazolium bromide) by mitochondrial dehydrogenases to form a purple MTT formazan crystals in viable cells. Synthesized compounds (7a-g) were prior dissolved in 0.1% DMSO and then serial dilution with medium and used in the experiment. Three different types of cancer cell lines were used in this experiment i.e., human Epitheloid Cervix Carcinoma (HeLa), human colon cancer cell line (Caco-2) and one normal kidney cell (HEK-293) were used in the assay. The cells were harvested at the log phase and it is cell counted using haemocytometer. Approximately 1 × 10^3 cells per well were seeded using all the cell lines. They were cultured in 100 μL of a DMEM media in 96-well plates and incubated at 37 °C for 24 hours under a 5% CO2 atmosphere. The cells were then washed with 1X PBS buffer and fresh media was added to the cells. The cells were then treated with different concentrations of the drugs (0.65-150 µM) in the volume of […] /well.
# (§3) The control wells contains the same cell count of 1 × 10^3 cells per well of 100 μL medium containing 0.1% DMSO. After 24 h (for HeLa cell and HEK-293) and 72 h (for Caco-2), the medium was discarded and it is washed with 1X PBS and it was incubated with 100 µl of MTT reagent (1 mg/ml) for 4 h at 37°C.
# (§4) Then the 96 well plate was placed on the shaker for 10 min and subsequently the absorbance was recorded by the ELISA reader at λ = 490 nm. The experiments were performed in […]
# (§5) triplicate. […]
# Caco-2 = test: MTT cytotoxicity assay, Caco-2; format: cell-based, human; conditions: Homo sapiens, Caco-2; 72 h incubation
# Description: as §1, §2, §3, §4, §5
# HeLa = test: MTT cytotoxicity assay, HeLa; format: cell-based, human; conditions: for IC50: Homo sapiens, HeLa, 24 h incubation; for SF (selectivity factor) HeLa: ratio of IC50 for HEK-293 to IC50 for HeLa
# Protocol: (§6) Cytotoxicity studies were performed for all the synthesized quinoxaline compounds (7a–7g) using standard 3-(4,5-dimethylthiazol-2-yl)-2,5-diphenyltetrazolium bromide (MTT) assay beside a panel of cancer cell lines such as human epithelioid cervix carcinoma (HeLa), human colorectal adenocarcinoma cell line (Caco-2) and one normal human embryonic kidney cells (HEK-293) in triplicates (Table 3). […] It is noteworthy to mention that Compound 7a and 7g presented best cytoselectivity in HeLa and Caco-2 cell lines respectively. […]
# as §1
# as §2, with “[…]. Cisplatin has been used as a standard positive control drug. The control wells contains the same cell count of 1 × 10^3 cells per well of 100 μL medium containing 0.1% DMSO. After 24 h (for HeLa cell and HEK-293) and 72 h (for Caco-2), the medium was discarded and it is washed with 1X PBS and it was incubated with 100 µl of MTT reagent (1 mg/ml) for 4 h at 37°C.” for “/well.”
# as §4, §5
# HEK-293 = test: MTT cytotoxicity assay, HEK-293 normal cells; format: cell-based, human; conditions: Homo sapiens, HEK293; 24 h incubation
# Protocol: as §6, §1
# as §2, with “[…]. Cisplatin has been used as a standard positive control drug. The control wells contains the same cell count of 1 × 10^3 cells per well of 100 μL medium containing 0.1% DMSO. After 24 h (for HeLa cell and HEK-293) and 72 h (for Caco-2), the medium was discarded and it is washed with 1X PBS and it was incubated with 100 µl of MTT reagent (1 mg/ml) for 4 h at 37°C.” for “/well.”
# as §4, §5
# [2] = Fluorescence quantum yield in water; format: physicochemical; conditions: 298 K, quinine sulphate as standard
# Protocol: To know the absorption and emission behaviour of these synthesized compounds (7a–g), a standard concentration (3 × 10^−6 mol l^−1) in water has been used. In UV-vis spectra, λmax of all these compounds are observed at 320–330 nm due to π–π* transition (Fig. S1a ^†). The corresponding emission peaks are observed at 400–500 nm (Fig. S1b ^†). The emission of quantum yield (Φ) was calculated for all of the compounds (7a–g) using eqn (1) (Table S1 ^†). […]
# 2.6.2. Fluorescence study:
# To know the emission property of all the synthesized complexes (7a-g), an initial investigation was performed using spectrofluorometric method in water by using absorption maximum as their excitation energy. Fluorescence quantum yield (Ф) of all the prepared compounds performed in water solution were calculated by employing the comparative William's method which involves the use of well-characterized standard with the known quantum yield value. Quinine sulphate was used as reference fluorophore excited at 350 nm and emission at 452 nm, quantum yield (ФR) = 0.50 in 1N H2SO4. The gradients of the plots are proportional to the quantum yield (Ф) of the studied system. The data obtained and quantum yield value calculated according to the equation (2): […]
# Where, φ = Quantum yield, I = Peak Area, OD = absorbance at λmax, η = Refractive index of solvent and reference. Here, we have used Quinine Sulphate as a standard for calculating emission of quantum yield. […]
Structure (SMILES),selectivity ratio [1],IC50 (Caco-2) [µM],IC50 (HeLa) [µM],SF (selectivity factor) HeLa (HeLa),IC50 (HEK-293) [µM],"Φ, emission quantum yield [2]",melting point [°C]
Clc1cc2nc(COc3ccccc3-c3nc4ccccc4s3)c(COc3ccccc3-c3nc4ccccc4s3)nc2cc1Cl [Compound 7e],> 9,20.9 ± 1.6,38.9 ± 0.1,>5.1,> 200,0.04,145 to 150
"COc1ccc2nc(COc3ccccc3-c3nc4ccccc4s3)c(COc3ccccc3-c3nc4ccccc4s3)nc2c1 [Compound 7g, 2,2'-((((6-methoxyquinoxaline-2,3-diyl)bis(methylene))bis(oxy))bis(2,1-phenylene))bis(benzo[d]thiazole)]",> 9,20.8 ± 1.6,36.8 ± 0.2,>5.4,> 200,0.013,155 to 160
